In US9458437B2, “Neuroprotective peptides that inhibit interaction between palmitoyl acyl transferase zinc-finger DHHC type containing 17 (zD17) and c-jun N-terminal kinase (JNK)” (The University of British Columbia, priority 2011, dated 2016):

Tests used:
zD17-JNK3 interaction = zD17-JNK3 interaction (Rattus norvegicus, UniProt P49187); experiment: co-immunoprecipitation of zD17 with JNK3 in cortical neuronal cultures; format: cell-based; parameters: diminished the co-immunoprecipitation of zD17 with JNK3; endogenous in cells; host or cells: primary cortical neurons of embryonic (E18-19) Wistar rat; conditions: for zD17-JNK3 interaction (co-immunoprecipitation), baseline: no NMDA
Sequence of zD17-JNK3 interaction (P49187 whole entry): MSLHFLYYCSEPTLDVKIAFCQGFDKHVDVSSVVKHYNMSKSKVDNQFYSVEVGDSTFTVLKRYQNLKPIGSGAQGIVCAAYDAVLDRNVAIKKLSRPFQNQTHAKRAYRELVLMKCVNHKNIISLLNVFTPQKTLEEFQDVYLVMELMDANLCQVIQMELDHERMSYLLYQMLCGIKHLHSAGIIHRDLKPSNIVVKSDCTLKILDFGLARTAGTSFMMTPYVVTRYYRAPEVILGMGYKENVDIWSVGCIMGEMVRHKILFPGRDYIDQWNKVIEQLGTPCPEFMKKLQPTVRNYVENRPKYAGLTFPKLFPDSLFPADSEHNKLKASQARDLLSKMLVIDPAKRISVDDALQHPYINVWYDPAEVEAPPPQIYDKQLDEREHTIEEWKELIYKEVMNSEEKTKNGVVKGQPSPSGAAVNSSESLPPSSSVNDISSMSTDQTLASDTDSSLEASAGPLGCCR
Experimental: (§1) All animal experiments were approved by the Animal Care Committee of the University of British Columbia. Primary cortical cultures were prepared from Wistar rat (UBC Animal Care Centre, Vancouver, BC, Canada) brains at embryonic days 18-19. Cultures were maintained in Neurobasal medium supplemented with B27 and 0.5 mM glutamax (Invitrogen™) as described previously (Yang et al., 2009).
(§2) The protocols for protein extraction have been described previously (Yang et al., 2009). For co-immunoprecipitation, cultured cells were washed with ice-cold PBS followed by incubation with 0.5 ml Gentle Lysis Buffer (GLB) containing 25 mM Tris-HCl (pH 7.4), 2 mM EDTA, 1 mM EGTA, 10 mM NaCl, 0.5% Triton X-100 and 10% Glycerol supplemented with the Complete Protease Inhibitor Tablets (Roche Applied Science™, Indianapolis, Ind., USA) and 1 mM PMSF. Total protein concentration was determined with the BioRad™ Protein Assay kit. Lysates were first precleaned by incubating with Protein A-Sepharose beads (Roche Applied Science™) for 1 h at 4° C., followed by incubation with indicated antibodies (>16 h at 4° C.) and protein A Sepharose bead (2 h at 4° C.). Lysates of rat brain tissues were precleaned with IgG and protein A-beads. Immunoprecipitates were washed three times with GLB buffer; boiled in 2× loading buffer with 1 mM dithiothreitol (DTT) for 3 min; and analyzed with SDS-PAGE as described previously (Yang et al., 2009). The relative intensities of the bands on immunoblots were analyzed and quantified using Image J™ (NIH).

zD17-JNK2 interaction = target: T1, zD17-JNK2 interaction (Rattus norvegicus, UniProt P49186); experiment: co-immunoprecipitation of zD17 with JNK2 in neuronal cultures; format: cell-based
T1 construct: endogenous in cells; host or cells: primary cortical neurons of embryonic Wistar rat
T1 sequence (P49186 whole entry): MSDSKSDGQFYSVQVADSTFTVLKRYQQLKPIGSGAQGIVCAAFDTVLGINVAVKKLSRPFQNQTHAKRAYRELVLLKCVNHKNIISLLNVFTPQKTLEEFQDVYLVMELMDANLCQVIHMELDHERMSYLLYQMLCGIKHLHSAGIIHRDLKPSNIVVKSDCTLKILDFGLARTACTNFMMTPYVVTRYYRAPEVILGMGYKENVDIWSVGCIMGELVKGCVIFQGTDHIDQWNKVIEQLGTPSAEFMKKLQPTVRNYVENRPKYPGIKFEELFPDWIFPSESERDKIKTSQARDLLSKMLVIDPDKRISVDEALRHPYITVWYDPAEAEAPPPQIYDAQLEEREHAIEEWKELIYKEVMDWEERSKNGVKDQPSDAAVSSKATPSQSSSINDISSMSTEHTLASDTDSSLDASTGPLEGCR
Experimental: as §1, §2

zD17-JNK1 interaction = target: T2, zD17-JNK1 interaction (Rattus norvegicus, UniProt P49185); experiment: co-immunoprecipitation of zD17 with JNK1 in neuronal cultures; format: cell-based
T2 construct: endogenous in cells; host or cells: primary cortical neurons of embryonic Wistar rat
T2 sequence (P49185 whole entry): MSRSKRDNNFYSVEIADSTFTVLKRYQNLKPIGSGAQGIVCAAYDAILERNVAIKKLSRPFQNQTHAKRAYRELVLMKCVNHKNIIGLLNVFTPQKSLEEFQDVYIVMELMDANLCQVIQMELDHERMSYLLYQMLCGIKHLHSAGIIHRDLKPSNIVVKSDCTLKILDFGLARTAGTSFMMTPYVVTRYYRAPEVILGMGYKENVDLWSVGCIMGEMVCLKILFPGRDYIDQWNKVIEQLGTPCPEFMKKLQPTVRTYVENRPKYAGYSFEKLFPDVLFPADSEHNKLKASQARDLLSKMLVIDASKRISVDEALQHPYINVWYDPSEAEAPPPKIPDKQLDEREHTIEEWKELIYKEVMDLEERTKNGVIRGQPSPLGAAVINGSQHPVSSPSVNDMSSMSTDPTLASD
Experimental: as §1
as §2, with “Lysates were first precleaned by incubating with Protein A-Sepharose beads (Roche Applied Science™) for 1 h at 4° C., followed by incubation with indicated antibodies (>16 h at 4° C.) and protein A Sepharose bead (2 h at 4° C.). Lysates of rat brain tissues were precleaned with IgG and protein A-beads.” left out

cultured neurons = experiment: axonal development in cultured neurons (Tau-1 labelling); format: cell-based, rat
Experimental: (§3) For biochemical studies, neurons were seeded in six-well culture plates with a density of 7.5×10^5 cells per well. For LDH assay and cell death detection, 24-well culture plates were used with a neuron density of 2.5×10^5 cells per well. Neurons of 14-17 days in vitro (DIV) were used for experiments. […] HEK 293 cells were maintained in DMEM (Invitrogen™) supplemented with 10% fetal bovine serum and 1% penicillin/streptomycin. For protein expression in cell lines, cells were transfected with Calcium Phosphate Transfection reagent (Promega™, San Luis Obispo, Calif., USA) and used 24 h later as described previously (Yang et al., 2009). The JNK inhibitor, L-JNKI, was purchased from Alexis Biochemicals™ (San Diego, Calif.). Thrombin was obtained from BIOPUR™ (Bubendorf, Switzerland). Other assay reagents without indication were obtained from Sigma™.
Cultured hippocampal neurons on glass coverslips were used for immunostaining. After treatments indicated in the text, neurons were fixed with 2% paraformaldehyde for 3 min at room temperature followed by permeabilization with ice-cold methanol for 10 min at −20° C. The coverslips were then washed three times with PBS and immunostained with appropriate antibodies dissolved in PBS for 1 h at room temperature. After washing three times with PBS, coverslips were incubated with Alexa-labeled secondary antibodies from Invitrogen for an additional 1 h. For mitochondrial detection, neuronal cultures were incubated at 37° C. for 30 min with 2 μM MitoTracker-TR (Invitrogen™). Coverslips were then fixed and mounted with ProLong Gold Antifade Reagent (Invitrogen™). Fluorescence was captured using a Zeiss Observer Z1™ microscope and all images were analyzed with ImageJ™ and processed using Adobe Photoshop™.

JNK3 = target: T3, JNK3 (Rattus norvegicus, UniProt P49187); experiment: kinase assay (KA) on JNK3 immunoprecipitated from cell lysates; format: cell-based
T3 construct: cell lysates were prepared and JNK was immunoprecipitated with specific antibodies; endogenous in cells; host or cells: rat primary neuronal cultures; JNK3 immunoprecipitated from lysate
T3 sequence (P49187 whole entry): as the sequence (P49187 whole entry) above
Experimental: JNK activity was measured with an in vitro kinase assay as described elsewhere (see, for e.g.: Khatlani et al., 2007). Briefly, cell lysates were prepared and JNK was immunoprecipitated with specific antibodies. The immnoprecipitates were then resuspended in 1× kinase buffer (Cell Signaling Technology™) supplemented with 200 μM ATP and 250 μg/ml GST-c-jun (1-89), and incubated at 30° C. for 30 min. Reactions were terminated by the addition of SDS-PAGE sample buffer. Phosphorylated c-jun was resolved by SDS-PAGE and detected with anti-p-c-jun.

neuronal cultures = experiment: LDH assay and PI staining, NMDA excitotoxicity-induced neuronal cell death; format: cell-based, rat; conditions: pretreatment, NMDA challenge 1 h, 24 h survival
Experimental: as §3
Neuronal cultures were challenged with indicated concentrations of NMDA for 1 h, followed by 24 h survival. The release of lactate dehydrogenase (LDH) was measured with an in vitro toxicology assay kit (Sigma™) according to the manufacturer's instructions. Spectrophotometric measurement was performed on a Multilabel Plate Reader (Envision™ 2103, Perkin Elmer™). The LDH reading represents the primary absorbance at a wavelength of 490 nm after subtraction of background absorbance at 690 nm. LDH readings were then converted to a percentage of neuronal death by dividing by the readings from cultures incubated with 1% triton for 15 min representing total LDH. Following the LDH assay, propidium iodide (PI) (Sigma™) was added to the medium at a final concentration of 1 μg/ml and neurons were stained for 30 min at 30° C. After fixation with 4% paraformaldehyde, neurons were washed with 1×PBS and stained with Hoechst™ 33342 (Sigma™). The fluorescence of PI and Hoechst™ were examined with laser microscopy and analyzed with ImageJ™.

CCCCCCCCCCCCCCC(Br)C(=O)O (stereo not drawn) [2-BrPA, 2-bromopalmitate]
zD17-JNK3 interaction (co-immunoprecipitation), baseline (zD17-JNK3 interaction): robustly enhanced

N[C@@H](CCC(=O)O)C(=O)O [Glutamate, glutamate]
zD17 interaction with JNK2, fold increase compared with control (zD17-JNK2 interaction): 1.7±0.2 fold
zD17 interaction with JNK1, fold increase compared with control (zD17-JNK1 interaction): 1.4±0.1 fold
zD17 interaction with JNK3, fold increase compared with control (zD17-JNK3 interaction): 2.6±0.2 fold

CN[C@H](CC(=O)O)C(=O)O [NMDA, N-methyl-D-aspartic acid]
zD17 interaction with JNK2, fold increase compared with control (zD17-JNK2 interaction): 2.1±0.4 fold
zD17 interaction with JNK1, fold increase compared with control (zD17-JNK1 interaction): 1.4±0.1 fold
zD17 interaction with JNK3, fold increase compared with control (zD17-JNK3 interaction): 2.5±0.3 fold

Oc1c2ccccc2c2c3c(cccc13)N=N2 [SP600125, reference compound]
axon length (cultured neurons; SP600125 incubation, control 161.2±3.9): 84.9±1.6%
axon initiation rate normalized to control (cultured neurons; incubation of cultured neurons, Tau-1 marker): 18.2±4.1%

IL-1β: cytokine used to induce inflammation stress
fold increase of zD17-JNK3 interaction (zD17-JNK3 interaction; 10 ng/ml, 16 h): 1.88±0.23 fold

MTPLMWAAYGTGSVGPTRLL (NIMoEmut NIMoE sequence with point mutations on three charged amino acids at positions 10, 12, and 15) [reference compound]
enhancement of JNK3 activity induced by NMDA (JNK3; neuronal cultures): did not selectively block enhancement
excitotoxicity-induced cell death as measured by LDH release and PI staining (neuronal cultures): no protective effects
enhancement of the zD17-JNK3 interaction induced by NMDA/excitotoxicity (zD17-JNK3 interaction): did not selectively block enhancement

NVKGESALDLAKQ (listed as Homo sapiens) [DIPep1, control peptide derived from an unrelated region of zD17 (255-267), reference compound]
excitotoxicity-induced cell death as measured by LDH release and PI staining (neuronal cultures): no protective effects

TNF-α
fold increase of zD17-JNK3 interaction (zD17-JNK3 interaction; 50 ng/ml, 6 h): 1.53±0.11 fold

TPLHWATRGGHLSMV (listed as Homo sapiens) [NIMoD, peptide comprising motif-D of zD17, fused to HIV-1 Tat transduction domain]
JNK3 basal activity (JNK3; neuronal cultures): reduction of JNK3 basal activity
JNK3 basal activity, fold change to control (JNK3; pretreatment of cells 1 μM for 2 h): 0.72±0.07 fold
zD17-JNK3 interaction (co-immunoprecipitation), baseline (zD17-JNK3 interaction): significantly diminished
